{"source": "PubChem BioAssay AID256", "about": "(DTP/NCI, 2004)", "test_system": "CD2F1 mice, L1210 leukemia ip, survival T/C", "experiment": "NCI In Vivo Anticancer Drug Screen. Data for tumor model L1210 Leukemia (intraperitoneal) in CD2F1 (CDF1) mice", "details": "endpoint: mean survival time, higher = longer survival", "how_it_was_run": "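Antitumor effect is scored in animals hosting a serially transplanted tumor. Values compare compound-dosed animals against vehicle-only controls as a simple quotient.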", "key": {"[1]": {"details": "dose: 100.0 mg/kg/injection, schedule: Q01DX009 (ip), vehicle: saline with Tween-80"}, "[2]": {"details": "dose: 100.0 mg/kg/injection, schedule: Q04DX003 (ip), vehicle: saline with Tween-80"}, "[3]": {"details": "dose: 200.0 mg/kg/injection, schedule: Q04DX003 (ip), vehicle: saline with Tween-80"}, "[4]": {"details": "dose: 400.0 mg/kg/injection, schedule: Q04DX003 (ip), vehicle: saline with Tween-80"}, "[5]": {"details": "dose: 25.0 mg/kg/injection, schedule: Q04DX003 (ip), vehicle: saline"}, "[6]": {"details": "dose: 12.5 mg/kg/injection, schedule: Q01DX009 (ip), vehicle: saline"}, "[7]": {"details": "dose: 25.0 mg/kg/injection, schedule: Q01DX009 (ip), vehicle: saline"}, "[8]": {"details": "dose: 100.0 mg/kg/injection, schedule: Q04DX003 (ip), vehicle: other"}, "[9]": {"details": "dose: 200.0 mg/kg/injection, schedule: Q04DX003 (ip), vehicle: other"}, "[10]": {"details": "dose: 400.0 mg/kg/injection, schedule: Q04DX003 (ip), vehicle: other"}}, "note": "Values joined by “and” are separate entries in the source; they are usually repeats but may differ in a detail not shown here. Identical values can stand only once. Inconclusive results and toxic doses are left out."}
{"smiles": "CC(NC1CCCCC1)c1ccc(O)cc1O", "note": "(configuration not stated)", "values": [{"measurement": "T/C", "setting": "dose: 75.0 mg/kg/injection, schedule: Q01DX001 (ip), vehicle: other", "value": "93 % of control"}, {"measurement": "T/C", "setting": "dose: 150.0 mg/kg/injection, schedule: Q01DX001 (ip), vehicle: other", "value": "87 % of control"}]}
{"smiles": "COC(=O)c1cc2ccccc2o1", "values": [{"measurement": "T/C", "setting": "[1]", "value": "100 % of control"}, {"measurement": "T/C", "setting": "[2]", "value": "108 % of control"}, {"measurement": "T/C", "setting": "dose: 200.0 mg/kg/injection, schedule: Q01DX009 (ip), vehicle: saline with Tween-80", "value": "100 % of control"}, {"measurement": "T/C", "setting": "[3]", "value": "108 % of control"}, {"measurement": "T/C", "setting": "dose: 400.0 mg/kg/injection, schedule: Q01DX009 (ip), vehicle: saline with Tween-80", "value": "105 % of control"}, {"measurement": "T/C", "setting": "[4]", "value": "94 % of control"}]}
{"smiles": "Cc1ccc(N=Cc2cc(Cl)ccc2O)cc1.Cc1ccc(N=Cc2cc(Cl)ccc2O)cc1.[Co]", "values": [{"measurement": "T/C", "setting": "[5]", "value": "95 % of control and 104 % of control"}, {"measurement": "T/C", "setting": "dose: 50.0 mg/kg/injection, schedule: Q04DX003 (ip), vehicle: saline", "value": "98 % of control and 108 % of control"}, {"measurement": "T/C", "setting": "dose: 100.0 mg/kg/injection, schedule: Q04DX003 (ip), vehicle: saline", "value": "124 % of control and 89 % of control"}]}
{"smiles": "O=C1CCC2(Cc3ccccc3C2=O)O1", "note": "(configuration not stated)", "values": [{"measurement": "T/C", "setting": "dose: 75.0 mg/kg/injection, schedule: Q01DX001 (ip), vehicle: saline", "value": "94 % of control"}, {"measurement": "T/C", "setting": "dose: 150.0 mg/kg/injection, schedule: Q01DX001 (ip), vehicle: saline", "value": "96 % of control"}, {"measurement": "T/C", "setting": "dose: 300.0 mg/kg/injection, schedule: Q01DX001 (ip), vehicle: saline", "value": "94 % of control"}]}
{"smiles": "CN(C)c1ccc(C(O)C(N)=O)cc1", "note": "(configuration not stated)", "values": [{"measurement": "T/C", "setting": "dose: 6.25 mg/kg/injection, schedule: Q01DX009 (ip), vehicle: saline", "value": "94 % of control"}, {"measurement": "T/C", "setting": "dose: 6.25 mg/kg/injection, schedule: Q04DX003 (ip), vehicle: saline", "value": "102 % of control"}, {"measurement": "T/C", "setting": "[6]", "value": "94 % of control"}, {"measurement": "T/C", "setting": "dose: 12.5 mg/kg/injection, schedule: Q04DX003 (ip), vehicle: saline", "value": "95 % of control"}, {"measurement": "T/C", "setting": "[7]", "value": "93 % of control"}, {"measurement": "T/C", "setting": "[5]", "value": "106 % of control"}]}
{"smiles": "O=CNc1ccc2c(c1)C(Br)c1ccccc1-2", "note": "(configuration not stated)", "values": [{"measurement": "T/C", "setting": "[1]", "value": "93 % of control"}, {"measurement": "T/C", "setting": "[2]", "value": "97 % of control"}, {"measurement": "T/C", "setting": "[3]", "value": "100 % of control"}, {"measurement": "T/C", "setting": "[4]", "value": "88 % of control"}]}
{"smiles": "C1CCC2(CC1)NCCO2", "values": [{"measurement": "T/C", "setting": "dose: 100.0 mg/kg/injection, schedule: Q01DX009 (ip), vehicle: saline sonified", "value": "96 % of control"}, {"measurement": "T/C", "setting": "dose: 200.0 mg/kg/injection, schedule: Q01DX009 (ip), vehicle: saline sonified", "value": "93 % of control"}]}
{"smiles": "CCCCOc1ccc(OCCCC)cc1", "values": [{"measurement": "T/C", "setting": "[8]", "value": "114 % of control"}, {"measurement": "T/C", "setting": "[9]", "value": "97 % of control"}, {"measurement": "T/C", "setting": "[10]", "value": "101 % of control"}]}
{"smiles": "CC1OC(OCC2OC(Oc3c(-c4ccc(O)c(O)c4)oc4cc(O)cc(O)c4c3=O)C(O)C(O)C2O)C(O)C(O)C1O", "note": "(configuration not stated)", "values": [{"measurement": "T/C", "setting": "dose: 100.0 mg/kg/injection, schedule: Q01DX001 (ip), vehicle: saline", "value": "100 % of control"}, {"measurement": "T/C", "setting": "dose: 200.0 mg/kg/injection, schedule: Q01DX001 (ip), vehicle: saline", "value": "102 % of control"}, {"measurement": "T/C", "setting": "dose: 400.0 mg/kg/injection, schedule: Q01DX001 (ip), vehicle: saline", "value": "100 % of control"}]}
{"smiles": "ClCCN(CCCl)c1ccc(N=Nc2ccccc2)cc1", "values": [{"measurement": "T/C", "setting": "dose: 100.0 mg/kg/injection, schedule: Q04DX003 (ip), vehicle: Klucel (hydroxypropylcellulose) (HPC)", "value": "102 % of control"}, {"measurement": "T/C", "setting": "dose: 200.0 mg/kg/injection, schedule: Q04DX003 (ip), vehicle: Klucel (hydroxypropylcellulose) (HPC)", "value": "113 % of control"}, {"measurement": "T/C", "setting": "dose: 400.0 mg/kg/injection, schedule: Q04DX003 (ip), vehicle: Klucel (hydroxypropylcellulose) (HPC)", "value": "113 % of control"}]}
{"smiles": "CN1c2c(nc(N)[nH]c2=O)NCC1CCNc1ccc(C(=O)NC(CCC(=O)O)C(=O)O)cc1", "note": "(configuration not stated)", "values": [{"measurement": "T/C", "setting": "dose: 25.0 mg/kg/injection, schedule: Q01DX009 (ip), vehicle: Klucel (hydroxypropylcellulose) (HPC)", "value": "118 % of control"}, {"measurement": "T/C", "setting": "dose: 50.0 mg/kg/injection, schedule: Q01DX009 (ip), vehicle: Klucel (hydroxypropylcellulose) (HPC)", "value": "123 % of control"}, {"measurement": "T/C", "setting": "dose: 200.0 mg/kg/injection, schedule: Q01DX009 (ip), vehicle: sodium bicarbonate", "value": "119 % of control"}, {"measurement": "T/C", "setting": "dose: 1250.0 mg/kg/injection, schedule: Q01DX009 (ip), vehicle: sodium bicarbonate", "value": "155 % of control"}]}
{"smiles": "C[N+](C)(C)c1ncnc2nc[nH]c12", "values": [{"measurement": "T/C", "setting": "[6]", "value": "98 % of control and 108 % of control"}, {"measurement": "T/C", "setting": "[7]", "value": "106 % of control and 108 % of control"}, {"measurement": "T/C", "setting": "dose: 50.0 mg/kg/injection, schedule: Q01DX009 (ip), vehicle: saline", "value": "97 % of control and 112 % of control"}, {"measurement": "T/C", "setting": "dose: 100.0 mg/kg/injection, schedule: Q01DX009 (ip), vehicle: saline", "value": "120 % of control and 121 % of control"}]}
{"smiles": "O=C(OC1(c2ccccc2)C2CCC1CC2)c1ccc([N+](=O)[O-])cc1", "note": "(configuration not stated)", "values": [{"measurement": "T/C", "setting": "dose: 12.5 mg/kg/injection, schedule: Q04DX002 (ip), vehicle: saline with Tween-80", "value": "96 % of control"}, {"measurement": "T/C", "setting": "dose: 25.0 mg/kg/injection, schedule: Q04DX002 (ip), vehicle: saline with Tween-80", "value": "93 % of control"}, {"measurement": "T/C", "setting": "dose: 50.0 mg/kg/injection, schedule: Q04DX002 (ip), vehicle: saline with Tween-80", "value": "101 % of control"}]}
{"smiles": "O=C(CCCN1CCN2Cc3[nH]c4ccccc4c3CC2C1)c1ccc(F)cc1", "note": "(configuration not stated)", "values": [{"measurement": "T/C", "setting": "dose: 25.0 mg/kg/injection, schedule: Q04DX003 (ip), vehicle: saline with Tween-80", "value": "101 % of control"}, {"measurement": "T/C", "setting": "dose: 50.0 mg/kg/injection, schedule: Q04DX003 (ip), vehicle: saline with Tween-80", "value": "107 % of control"}, {"measurement": "T/C", "setting": "[2]", "value": "103 % of control"}]}
{"smiles": "CCOn1nc(-c2ccccc2)oc1=O", "values": [{"measurement": "T/C", "setting": "[8]", "value": "96 % of control"}, {"measurement": "T/C", "setting": "[9]", "value": "93 % of control"}, {"measurement": "T/C", "setting": "[10]", "value": "116 % of control"}]}
